Laboratory results taken from PubChem BioAssay (NCI).
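Briefly, cells in 96-well plates were exposed to five compound concentrations for 48 h, and endpoints were estimated by linear interpolation. TGI denotes the concentration required for complete inhibition of growth.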

How the values were obtained:
Assay in all cases: DTP human tumour cell line panel, 48 h
DMS 273 small cell lung = test system: DMS 273 small cell lung
DMS 114 small cell lung = test system: DMS 114 small cell lung
SF-268 CNS = test system: SF-268 CNS
SNB-78 CNS = test system: SNB-78 CNS
MALME-3M melanoma = test system: MALME-3M melanoma
HL-60(TB) leukemia = test system: HL-60(TB) leukemia
ACHN renal = test system: ACHN renal
NCI-H460 lung = test system: NCI-H460 lung
SW-620 colon = test system: SW-620 colon
A549 NSCLC = test system: A549 NSCLC
OVCAR-8 ovarian = test system: OVCAR-8 ovarian
TK-10 renal = test system: TK-10 renal
K-562 leukemia = test system: K-562 leukemia
M19-MEL melanoma = test system: M19-MEL melanoma
RPMI-8226 leukemia = test system: RPMI-8226 leukemia
HCC-2998 colon = test system: HCC-2998 colon
U251 CNS = test system: U251 CNS
EKVX NSCLC = test system: EKVX NSCLC
HCT-116 colon = test system: HCT-116 colon
SN12C renal = test system: SN12C renal
M14 melanoma = test system: M14 melanoma
COLO 205 colon = test system: COLO 205 colon
SNB-75 CNS = test system: SNB-75 CNS
KM12 colon = test system: KM12 colon
IGROV1 ovarian = test system: IGROV1 ovarian
UACC-257 melanoma = test system: UACC-257 melanoma
NCI-H23 lung = test system: NCI-H23 lung
HCT-15 colon = test system: HCT-15 colon
SF-295 CNS = test system: SF-295 CNS
SK-MEL-2 melanoma = test system: SK-MEL-2 melanoma
OVCAR-4 ovarian = test system: OVCAR-4 ovarian
NCI-H226 lung = test system: NCI-H226 lung
A498 renal = test system: A498 renal
SNB-19 CNS = test system: SNB-19 CNS
SK-MEL-28 melanoma = test system: SK-MEL-28 melanoma
XF 498 CNS = test system: XF 498 CNS
HT29 colon = test system: HT29 colon
SF-539 CNS = test system: SF-539 CNS
KM20L2 colon = test system: KM20L2 colon
CCRF-CEM leukemia = test system: CCRF-CEM leukemia
SK-OV-3 ovarian = test system: SK-OV-3 ovarian
OVCAR-5 ovarian = test system: OVCAR-5 ovarian
SK-MEL-5 melanoma = test system: SK-MEL-5 melanoma
CAKI-1 renal = test system: CAKI-1 renal
OVCAR-3 ovarian = test system: OVCAR-3 ovarian
HOP-92 NSCLC = test system: HOP-92 NSCLC
HOP-62 NSCLC = test system: HOP-62 NSCLC
RXF 393 renal = test system: RXF 393 renal
NCI-H522 lung = test system: NCI-H522 lung
786-0 renal = test system: 786-0 renal
MOLT-4 leukemia = test system: MOLT-4 leukemia
UACC-62 melanoma = test system: UACC-62 melanoma
SR leukemia = test system: SR leukemia
LXFL 529 NSCLC = test system: LXFL 529 NSCLC
LOX IMVI melanoma = test system: LOX IMVI melanoma
UO-31 renal = test system: UO-31 renal
DLD-1 colon = test system: DLD-1 colon

In the case of `O=C(c1ccccc1)c1c(-c2ccccc2)sc2nc3ccccc3nc12`, the TGI (DMS 273 small cell lung) is reported as over 100 µM, the TGI (DMS 114 small cell lung) is reported as over 100 µM and the TGI (SF-268 CNS) is reported as over 100 µM. The TGI (SNB-78 CNS) was over 100 µM, the TGI (MALME-3M melanoma) was over 100 µM and the TGI (HL-60(TB) leukemia) was over 100 µM. The TGI (ACHN renal) was over 100 µM, the TGI (NCI-H460 lung) was over 100 µM and the TGI (SW-620 colon) was over 100 µM. The TGI (A549 NSCLC) was over 100 µM, the TGI (OVCAR-8 ovarian) was over 100 µM and the TGI (TK-10 renal) was over 100 µM. For the same compound, the TGI (K-562 leukemia) was over 100 µM, the TGI (M19-MEL melanoma) was over 100 µM and the TGI (RPMI-8226 leukemia) was over 100 µM. It also gave a TGI (HCC-2998 colon) of over 100 µM, a TGI (U251 CNS) of over 100 µM and a TGI (EKVX NSCLC) of over 100 µM. It also gave a TGI (HCT-116 colon) of over 100 µM, a TGI (SN12C renal) of over 100 µM and a TGI (M14 melanoma) of over 100 µM. It also gave a TGI (COLO 205 colon) of over 100 µM, a TGI (SNB-75 CNS) of 85.6 µM and a TGI (KM12 colon) of over 100 µM. The TGI (IGROV1 ovarian) was over 100 µM, the TGI (UACC-257 melanoma) was over 100 µM and the TGI (NCI-H23 lung) was over 100 µM. It also gave a TGI (HCT-15 colon) of over 100 µM, a TGI (SF-295 CNS) of over 100 µM and a TGI (SK-MEL-2 melanoma) of over 100 µM. For the same compound, the TGI (OVCAR-4 ovarian) was over 100 µM, the TGI (NCI-H226 lung) was over 100 µM and the TGI (A498 renal) was over 100 µM. It also gave a TGI (SNB-19 CNS) of over 100 µM, a TGI (SK-MEL-28 melanoma) of over 100 µM and a TGI (XF 498 CNS) of over 100 µM. The TGI (HT29 colon) was over 100 µM, the TGI (SF-539 CNS) was over 100 µM and the TGI (KM20L2 colon) was over 100 µM. For the same compound, the TGI (CCRF-CEM leukemia) was over 100 µM, the TGI (SK-OV-3 ovarian) was over 100 µM and the TGI (OVCAR-5 ovarian) was over 100 µM. It also gave a TGI (SK-MEL-5 melanoma) of over 100 µM, a TGI (CAKI-1 renal) of over 100 µM and a TGI (OVCAR-3 ovarian) of over 100 µM. It also gave a TGI (HOP-92 NSCLC) of over 100 µM, a TGI (HOP-62 NSCLC) of over 100 µM and a TGI (RXF 393 renal) of over 100 µM. For the same compound, the TGI (NCI-H522 lung) was over 100 µM, the TGI (786-0 renal) was over 100 µM and the TGI (MOLT-4 leukemia) was over 100 µM. The TGI (UACC-62 melanoma) was over 100 µM.

`Cc1ccc(/C(O)=C/c2nc3c(nc2NC24CC5CC(CC(C5)C2)C4)c(=O)oc2ccccc23)cc1` was tested, and the TGI (DMS 273 small cell lung) was over 100 µM, the TGI (DMS 114 small cell lung) was over 100 µM and the TGI (SF-268 CNS) was over 100 µM. It also gave a TGI (MALME-3M melanoma) of over 100 µM, a TGI (HL-60(TB) leukemia) of over 100 µM and a TGI (ACHN renal) of over 100 µM. For the same compound, the TGI (SR leukemia) was over 100 µM, the TGI (NCI-H460 lung) was over 100 µM and the TGI (SW-620 colon) was over 100 µM. The TGI (A549 NSCLC) was over 100 µM, the TGI (OVCAR-8 ovarian) was over 100 µM and the TGI (LXFL 529 NSCLC) was over 100 µM. It also gave a TGI (TK-10 renal) of over 100 µM, a TGI (K-562 leukemia) of over 100 µM and a TGI (LOX IMVI melanoma) of over 100 µM. For the same compound, the TGI (M19-MEL melanoma) was over 100 µM, the TGI (RPMI-8226 leukemia) was over 100 µM and the TGI (HCC-2998 colon) was over 100 µM. The TGI (U251 CNS) was over 100 µM, the TGI (EKVX NSCLC) was over 100 µM and the TGI (HCT-116 colon) was over 100 µM. For the same compound, the TGI (SN12C renal) was over 100 µM, the TGI (M14 melanoma) was over 100 µM and the TGI (COLO 205 colon) was over 100 µM. It also gave a TGI (SNB-75 CNS) of 70.1 µM, a TGI (KM12 colon) of over 100 µM and a TGI (IGROV1 ovarian) of over 100 µM. The TGI (UACC-257 melanoma) was over 100 µM, the TGI (NCI-H23 lung) was over 100 µM and the TGI (HCT-15 colon) was over 100 µM. It also gave a TGI (SK-MEL-2 melanoma) of over 100 µM, a TGI (NCI-H226 lung) of over 100 µM and a TGI (SNB-19 CNS) of over 100 µM. For the same compound, the TGI (UO-31 renal) was over 100 µM, the TGI (SK-MEL-28 melanoma) was over 100 µM and the TGI (XF 498 CNS) was over 100 µM. The TGI (HT29 colon) was over 100 µM, the TGI (SF-539 CNS) was over 100 µM and the TGI (KM20L2 colon) was over 100 µM. For the same compound, the TGI (CCRF-CEM leukemia) was over 100 µM, the TGI (SK-OV-3 ovarian) was over 100 µM and the TGI (OVCAR-5 ovarian) was over 100 µM. The TGI (SK-MEL-5 melanoma) was over 100 µM, the TGI (CAKI-1 renal) was over 100 µM and the TGI (OVCAR-3 ovarian) was over 100 µM. The TGI (HOP-92 NSCLC) was over 100 µM, the TGI (HOP-62 NSCLC) was over 100 µM and the TGI (RXF 393 renal) was over 100 µM. It also gave a TGI (NCI-H522 lung) of over 100 µM, a TGI (786-0 renal) of over 100 µM and a TGI (DLD-1 colon) of over 100 µM. The TGI (MOLT-4 leukemia) was over 100 µM and the TGI (UACC-62 melanoma) was over 100 µM.
